The text below walks through data of patent publication US7442703B2, “Piperidine derivatives useful as CCR5 antagonists” (priority 2001, dated 2008).

This assay relates to HIV-1 luciferase reporter virus in U87-CD4-CCR5 cells. Put plainly: HIV Replication (luciferase) assay. In kind it is cell-based. The following applies: Human immunodeficiency virus 1, U87/CD4/CCR5, read-out: HIV Replication (luciferase) IC50. The method, then:
Luciferase Replication Assay:
Plasmids encoding the full length genome of HIV-1 pNL-4-Luc with the gp120 V-3 loop replaced by the Bgl II fragment of HIV-1 ADA, YU-2 or HxB (ADA-Luc-FL, YU-2-Luc-FL and HxB-Luc-FL) are obtained from Dr. Susan Pontow (Washington University, St. Louis Mo.). Replication-competent luciferase reporter virus stocks are generated by transfection of plasmids into 293T cells using Superfect (Qiagen) or Mirus transfection reagents. Viral stocks are collected 48 hours following transfection and titered for luciferase production on U-87-CCR5 or CXCR4 cells. U87-CD4-CCR5 cells (10^4/well) are plated in 96-well cell culture plates and incubated overnight. Media is removed and replaced with 50 μl of fresh culture media (DMEM, 10% FCS) and 50 μl of compound diluted in culture medium. Cells are incubated with compound at 37° C. for 1 hour. The resultant supernatant is removed and replaced with 20 μl of media containing compound and infected with an equal volume of diluted or undiluted virus stock at 37° C. for 3-4 hours. The cells are washed once with DMEM, and 200 μl of media containing compound is added. The cultures are incubated for 3 days, the cells lysed in luciferase lysis buffer (Promega, Madison, Wis.) and transferred to Immulon plates (Dynex Technologies, Chantilly Va.). An equal volume of luciferase substrate (Promega, Madison Wis.) is added to lysates and the plates read immediately in a Wallac Luminometer. Fifty and ninety percent inhibitory concentrations are determined using GraphPad PRISM software.
With `Cc1ncnc(C)c1C(=O)N1CCC(C)(N2CCC(N(Cc3ccccc3)C3CCN(S(=O)(=O)c4cccc(Cl)c4)CC3)CC2)CC1` [Compound 1], the half-maximal inhibitory concentration (IC50) turned out to be 0.1 nM.

Turning to `Cc1ncnc(C)c1C(=O)N1CCC(C)(N2CCC(N(Cc3ccccc3)C3CCN(S(C)(=O)=O)CC3)CC2)CC1` [Compound 2], the half-inhibitory concentration (IC50) is 0.8 nM.

As for `Cc1ncnc(C)c1C(=O)N1CCC(C)(N2CCC(N(CC3CC3)C3CCN(S(=O)(=O)c4cccc(Cl)c4)CC3)CC2)CC1` [Compound 3], the IC50 worked out at 32 nM.

For the molecule `Cc1ncnc(C)c1C(=O)N1CCC(C)(N2CCC(N(Cc3ccccc3)C3CCN(Cc4ccccc4)CC3)CC2)CC1` [Compound 4], the IC50 stood at 1.7 nM.

With `Cc1ncnc(C)c1C(=O)N1CCC(C)(N2CCC(N(Cc3ccccc3)C3CCN(S(=O)(=O)c4ccccc4Cl)CC3)CC2)CC1` [Compound 5], the IC50 is 2.1 nM.

With `Cc1ncnc(C)c1C(=O)N1CCC(C)(N2CCC(N(Cc3ccccc3)C3CCN(S(=O)(=O)c4ccc(Cl)cc4)CC3)CC2)CC1` [Compound 6], the IC50 amounted to 0.9 nM.

As to `Cc1ncnc(C)c1C(=O)N1CCC(C)(N2CCC(N(Cc3ccccc3)C3CCN(S(=O)(=O)C4CC4)CC3)CC2)CC1` [Compound 7], the IC50 is 3 nM.

Regarding `Cc1ncnc(C)c1C(=O)N1CCC(C)(N2CCC(N(Cc3ccccc3)c3ccccc3)CC2)CC1` [Compound 9], the 50% inhibitory concentration (IC50) was 3 nM.

Regarding `Cc1ncnc(C)c1C(=O)N1CCC(C)(N2CCC(N(Cc3ccccc3)c3ccc(C(F)(F)F)cc3)CC2)CC1` [Compound 10], the IC50 turned out to be 0.5 nM.

`Cc1ncnc(C)c1C(=O)N1CCC(C)(N2CCC(N(Cc3ccccc3)c3ccc(OC(F)(F)F)cc3)CC2)CC1` [Compound 11]: the IC50 was determined as 0.2 nM.

With `Cc1ncnc(C)c1C(=O)N1CCC(C)(N2CCC(N(Cc3ccccc3)c3ccc(Cl)cc3)CC2)CC1` [Compound 12], the IC50 was 0.2 nM.

Turning to `Cc1ncnc(C)c1C(=O)N1CCC(C)(N2CCC(N(Cc3ccccc3)c3ccc(C(F)(F)F)nc3)CC2)CC1` [Compound 13], the IC50 came to 0.2 nM.

Regarding `Cc1ncnc(C)c1C(=O)N1CCC(C)(N2CCC(N(Cc3ccccc3)c3ccc(F)cc3)CC2)CC1` [Compound 14], the IC50 was 0.1 nM.

On to `Cc1cc(-c2cc[n+]([O-])cc2)cc(C)c1C(=O)N1CCC(C)(N2CCC(N(Cc3ccccc3)c3ccc(C(F)(F)F)nc3)CC2)CC1` [Compound 16], for which the IC50 was 0.5 nM.

With `Cc1ncnc(C)c1C(=O)N1CCC(C)(N2CCC(N(Cc3ccccc3)c3cccc(Br)c3)CC2)CC1` [Compound 17], the half-maximal inhibitory concentration (IC50) was 0.1 nM.

As to `Cc1ncnc(C)c1C(=O)N1CCC(C)(N2CCC(N(Cc3ccccc3)c3cccc(Cl)c3)CC2)CC1` [Compound 18], the concentration for half-maximal inhibition (IC50) is 0.1 nM.

Regarding `Cc1ncnc(C)c1C(=O)N1CCC(C)(N2CCC(N(Cc3ccc(F)cc3)c3cccc(Br)c3)CC2)CC1` [Compound 19], the IC50 was 0.5 nM.

Turning to `Cc1ncnc(C)c1C(=O)N1CCC(C)(N2CCC(N(Cc3ccccc3)c3cccc(C(F)(F)F)c3)CC2)CC1` [Compound 20], the 50% inhibitory concentration (IC50) turned out to be 0.2 nM.

With `Cc1ncnc(C)c1C(=O)N1CCC(C)(N2CCC(N(Cc3ccccc3)c3ccc(C(C)(C)C)cc3)CC2)CC1` [Compound 21], the concentration for half-maximal inhibition (IC50) was determined as 1 nM.

Turning to `Cc1ncnc(C)c1C(=O)N1CCC(C)(N2CCC(N(Cc3ccccc3)c3ccc(C(C)C)cc3)CC2)CC1` [Compound 22], the IC50 was determined as 0.2 nM.

As to `Cc1ncnc(C)c1C(=O)N1CCC(C)(N2CCC(N(Cc3ccccc3)c3ccc(I)cc3)CC2)CC1` [Compound 23], the 50% inhibitory concentration (IC50) amounted to 0.1 nM.

On to `Cc1ncnc(C)c1C(=O)N1CCC(C)(N2CCC(N(Cc3ccccc3)c3cccc(OC(F)(F)F)c3)CC2)CC1` [Compound 24], for which the IC50 was determined as 0.2 nM.

`Cc1ncnc(C)c1C(=O)N1CCC(C)(N2CCC(N(Cc3ccccc3)c3ccc(F)c(F)c3)CC2)CC1` [Compound 25]: the IC50 worked out at 0.1 nM.

Take `Cc1ncnc(C)c1C(=O)N1CCC(C)(N2CCC(N(Cc3ccccc3)c3ccc(Cl)c(Cl)c3)CC2)CC1` [Compound 26]: the IC50 was determined as 0.3 nM.

With `Cc1ncnc(C)c1C(=O)N1CCC(C)(N2CCC(N(Cc3ccccc3)c3ccc(F)c(Cl)c3)CC2)CC1` [Compound 27], the half-maximal inhibitory concentration (IC50) turned out to be 0.1 nM.

On to `Cc1cc(N(Cc2ccccc2)C2CCN(C3(C)CCN(C(=O)c4c(C)ncnc4C)CC3)CC2)ccc1Br` [Compound 28], for which the IC50 was 0.22 nM.

Consider `COc1ccc(N(Cc2ccccc2)C2CCN(C3(C)CCN(C(=O)c4c(C)ncnc4C)CC3)CC2)cc1Cl` [Compound 29], for which the IC50 turned out to be 0.1 nM.

For the molecule `Cc1cc(N(c2ccccc2)C2CCN(C3(C)CCN(C(=O)c4c(C)ncnc4C)CC3)CC2)ccc1Br` [Compound 30], the IC50 worked out at 0.26 nM.

`Cc1ncnc(C)c1C(=O)N1CCC(C)(N2CCC(N(Cc3ccccc3)c3cccc(F)c3)CC2)CC1` [Compound 31]: the IC50 was determined as 0.44 nM.

As to `Cc1ncnc(C)c1C(=O)N1CCC(C)(N2CCC(N(Cc3ccccc3)c3cc(Cl)cc(Cl)c3)CC2)CC1` [Compound 32], the 50% inhibitory concentration (IC50) came to 1.7 nM.

On to `COc1cccc(N(Cc2ccccc2)C2CCN(C3(C)CCN(C(=O)c4c(C)ncnc4C)CC3)CC2)c1` [Compound 33], for which the IC50 came out at 0.53 nM.

For `Cc1ncnc(C)c1C(=O)N1CCC(C)(N2CCC(N(Cc3ccccc3)c3cc(C(F)(F)F)cc(C(F)(F)F)c3)CC2)CC1` [Compound 34], the half-inhibitory concentration (IC50) came out at 10 nM.

Take `Cc1ncnc(C)c1C(=O)N1CCC(C)(N2CCC(N(Cc3ccccc3)c3ccc(Cl)c(C(F)(F)F)c3)CC2)CC1` [Compound 35]: the half-maximal inhibitory concentration (IC50) stood at 2 nM.

Consider `Cc1ncnc(C)c1C(=O)N1CCC(C)(N2CCC(N(Cc3ccccc3)c3cc(F)cc(F)c3)CC2)CC1` [Compound 36], for which the half-maximal inhibitory concentration (IC50) worked out at 0.1 nM.

Take `COc1ccc(N(Cc2ccccc2)C2CCN(C3(C)CCN(C(=O)c4c(C)ncnc4C)CC3)CC2)cc1` [Compound 37]: the IC50 was 0.1 nM.

Turning to `Cc1ncnc(C)c1C(=O)N1CCC(C)(N2CCC(N(Cc3ccccc3)c3ccc(Br)c(C(F)(F)F)c3)CC2)CC1` [Compound 38], the IC50 was found to be 3 nM.

`Cc1cccc(N(Cc2ccccc2)C2CCN(C3(C)CCN(C(=O)c4c(C)ncnc4C)CC3)CC2)c1` [Compound 39]: the IC50 was 0.1 nM.

As to `CCOc1ccc(N(Cc2ccccc2)C2CCN(C3(C)CCN(C(=O)c4c(C)ncnc4C)CC3)CC2)cc1` [Compound 40], the 50% inhibitory concentration (IC50) is less than 0.1 nM.

With `CCc1ccc(N(Cc2ccccc2)C2CCN(C3(C)CCN(C(=O)c4c(C)ncnc4C)CC3)CC2)cc1` [Compound 41], the IC50 is less than 0.1 nM.

For the molecule `Cc1ncnc(C)c1C(=O)N1CCC(C)(N2CCC(N(Cc3ccccc3)c3ccccc3F)CC2)CC1` [Compound 42], the IC50 was 0.8 nM.

On to `Cc1ncnc(C)c1C(=O)N1CCC(C)(N2CCC(N(Cc3ccccc3)c3ccc(Oc4ccccc4)cc3)CC2)CC1` [Compound 43], for which the IC50 worked out at 2 nM.

For the molecule `Cc1ncnc(C)c1C(=O)N1CCC(C)(N2CCC(N(Cc3ccccc3)c3cccc(C#N)c3)CC2)CC1` [Compound 44], the half-inhibitory concentration (IC50) worked out at 0.1 nM.

Regarding `Cc1ncnc(C)c1C(=O)N1CCC(C)(N2CCC(N(Cc3ccccc3)c3ccc(N4CCOCC4)cc3)CC2)CC1` [Compound 45], the IC50 stood at 0.9 nM.

Turning to `Cc1ncnc(C)c1C(=O)N1CCC(C)(N2CCC(N(Cc3ccccc3)c3ccn(Cc4ccccc4)n3)CC2)CC1` [Compound 46], the concentration for half-maximal inhibition (IC50) was 2 nM.

As for `Cc1ncnc(C)c1C(=O)N1CCC(C)(N2CCC(N(Cc3ccccc3)c3ccc(CCNS(C)(=O)=O)cc3)CC2)CC1` [Compound 47], the IC50 stood at 0.05 nM.

For the molecule `CC(=O)NCCc1ccc(N(Cc2ccccc2)C2CCN(C3(C)CCN(C(=O)c4c(C)ncnc4C)CC3)CC2)cc1` [Compound 49], the IC50 was 0.4 nM.

Consider `Cc1ncnc(C)c1C(=O)N1CCC(C)(N2CCC(N(Cc3ccccc3)c3ccc(Cl)c4cccnc34)CC2)CC1` [Compound 51], for which the half-maximal inhibitory concentration (IC50) is 0.32 nM.

As for `Cc1ncnc(C)c1C(=O)N1CCC(C)(N2CCC(N(Cc3ccccc3)c3ccc(Br)c4cccnc34)CC2)CC1` [Compound 52], the IC50 turned out to be 1 nM.

Take `Cc1ncnc(C)c1C(=O)N1CCC(C)(N2CCC(N(Cc3ccccc3)c3cccc4cccnc34)CC2)CC1` [Compound 53]: the half-inhibitory concentration (IC50) worked out at 0.6 nM.

On to `C=CCOC(=O)NCCc1ccc(N(Cc2ccccc2)C2CCN(C3(C)CCN(C(=O)c4c(C)ncnc4C)CC3)CC2)cc1` [Compound 54], for which the IC50 came out at 0.6 nM.

With `Cc1ncnc(C)c1C(=O)N1CCC(C)(N2CCC(N(Cc3ccccc3)c3ccc(CCN)cc3)CC2)CC1` [Compound 55], the IC50 was 3.5 nM.

With `Cc1ncnc(C)c1C(=O)N1CCC(C)(N2CCC(N(Cc3ccccc3)c3ccc(CCNS(=O)(=O)C4CC4)cc3)CC2)CC1` [Compound 56], the IC50 stood at 0.2 nM.

As to `Cc1ncnc(C)c1C(=O)N1CCC(C)(N2CCC(N(Cc3ccccc3)c3ccc(CCNS(=O)(=O)CC(F)(F)F)cc3)CC2)CC1` [Compound 57], the IC50 worked out at 0.4 nM.

`C=CCOC(=O)c1ccc(N(Cc2ccccc2)C2CCN(C3(C)CCN(C(=O)c4c(C)ncnc4C)CC3)CC2)cc1` [Compound 58]: the IC50 was 2 nM.

In the case of `Cc1ncnc(C)c1C(=O)N1CCC(C)(N2CCC(N(Cc3ccccc3)c3cccc(C(=O)O)c3)CC2)CC1` [Compound 59], the concentration for half-maximal inhibition (IC50) was 4 nM.

Consider `Cc1ncnc(C)c1C(=O)N1CCC(C)(N2CCC(N(Cc3ccccc3)c3ccc(C(=O)O)cc3)CC2)CC1` [Compound 60], for which the IC50 amounted to 27 nM.

As usually defined, the IC50 is the concentration at which inhibition is half-maximal.
